Values of other authors as cited in publication PMC12359172, “Cell and tissue reprogramming: Unlocking a new era in medical drug discovery” (Pharmacological Reviews, 2025).

Experiments:
[1] = system: AMD iPSC-derived RPE cells; parameters: method as in PMID 35056119, PMID 33918210; settings: ref [431],[432]
[2] = system: human dermal fibroblasts / primary human cardiac fibroblasts; settings: for effect on cardiac fibroblast reprogramming: alongside MEF2C and TBX5 (MT), chemical screen of 2000 compounds, ref [472]; for reprogramming efficiency: HDF with GATA4, MEF2C, TBX5, MYOCD, NKX2-5, miR-1 and miR-133a plus small molecules, ref [468]
[3] = parameters: method as in PMID 10066283, PMID 9704384; settings: ref [843],[844]
[4] = system: Müller glia (MG); settings: NMDA-induced injury, intraperitoneal injection as printed; ref [333]
[5] = system: skin fibroblasts from patients with ALS, HFFs, FAD fibroblasts; settings: human induced motor neuron model, chemical screen; ref [508]
[6] = parameters: method as in PMID 32392694, PMID 27490705; settings: ref [392],[393]
[7] = system: SMA iPSC-derived motor neurons; parameters: method as in PMID 19098894; settings: ref [391]
[8] = system: iPSC-derived cardiac organoid; parameters: method as in PMID 32284552; settings: ref [442]
[9] = system: iPSC-derived cardiomyocytes (KCNQ1/TRPM4 mutation); settings: ref [413]
[10] = system: YAP; parameters: method as in PMID 33888614; settings: ref [139]

For `NC(=O)c1ncn([C@@H]2O[C@H](COP(=O)(O)O)[C@@H](O)[C@H]2O)c1N` [5-aminoimidazole-4-carboxamide ribonucleotide], the “effect on mitochondrial function” value [1] is given as “improved mitochondrial function”.

In the case of `CCS(=O)(=O)N1CC(CC#N)(n2cc(-c3ncnc4[nH]ccc34)cn2)C1` [Baricitinib], the “effect on cardiac fibroblast reprogramming” value [2] is listed as “significantly improved reprogramming efficiency and promoted spontaneous contractile activity”.

In the case of `O=c1[nH]c(=O)n([C@H]2C[C@H](O)[C@@H](CO)O2)cc1Br` [BrdU, bromodeoxyuridine], the developmental toxicity [3] is listed as “dose-dependent genetic and neurologic developmental defects”.

In the case of `Cc1c[nH]c(-c2cnc(NCCNc3ccc(C#N)cn3)nc2-c2ccc(Cl)cc2Cl)n1` [CHIR99021], the reprogramming efficiency [2] is given as less than 25%.

In the case of `COCCOc1ccc(-c2cn(-c3ccccc3)c3nc[nH]c(=O)c23)cc1` [DMX-5804], the “effect on Müller glia” value [4] is listed as “promoted MG proliferation and conversion to a retinal progenitor cell–like state”.

In the case of `CC(C)(C)c1nc2c3cc[nH]c(=O)c3c3cc(F)ccc3c2[nH]1` [JAK1 inhibitor (EMD4Biosciences; 420099)], the reprogramming efficiency [2] is listed as less than 25%.

For `O=C1Cc2c([nH]c3ccc(Br)cc23)-c2ccccc2N1` [Kenpaullone], the “rescue of ALS-specific disease characteristics” value [5] is listed as “rescuing ALS-specific disease characteristics, including restoring electrophysiological activity and the ability to form NMJs”.

In the case of `CN(C)C(=N)N=C(N)N` [Metformin], the “effect on mitochondrial function” value [1] is listed as “improved mitochondrial function”.

For `NC(=O)c1ccc(-c2nc(-c3ccc4c(c3)OCO4)c(-c3ccccn3)[nH]2)cc1` [SB431542], the “effect on cardiac fibroblast reprogramming” value [2] is listed as “significantly improved reprogramming efficiency and promoted spontaneous contractile activity”.

For `CCCC(CCC)C(=O)O` [VPA, valproic acid], the clinical trial outcome [6] is listed as “failed in clinical trials” and the drug screening outcome [7] is listed as “potential treatments”.

For `Oc1nc(-c2ccc(C(F)(F)F)cc2)nc2c1CSCC2` [Xav939], the iCM function ([2]; MST cocktail (MYOCD, SMAD6, TBX20) combined with FGF2 and XAV939, primary human cardiac fibroblasts, ref [536]) is given as “spontaneous contractions and calcium transients”.

For `COc1cccc2c1C(=O)c1c(O)c3c(c(O)c1C2=O)C[C@@](O)(C(=O)CO)C[C@@H]3O[C@H]1C[C@H](N)[C@H](O)[C@H](C)O1` [doxorubicin], the “cardiotoxicity detected by model” value [8] is given as “cardiotoxic effects”.

In the case of `NC[C@H]1O[C@H](O[C@H]2[C@H](O)[C@@H](O[C@H]3O[C@H](CO)[C@@H](O)[C@H](N)[C@H]3O)[C@H](N)C[C@@H]2N)[C@H](N)C[C@@H]1O` [tobramycin], the drug screening outcome [7] is listed as “potential treatments”.

In the case of `COc1ccc(CCN(C)CCCC(C#N)(c2ccc(OC)c(OC)c2)C(C)C)cc1OC` (stereo not shown) [verapamil], the drug screening outcome [9] is given as “potential treatment”.

In the case of verteporfin, the fibroblast-mediated regeneration [10] is given as “enhance fibroblast-mediated regeneration, improving mechanical strength and reducing scarring”.
